The nature of the data set: Quantification of inhibitor 45 in serum and cecal contents of gnotobiotic mice (LC–MS/MS). The data set is classed as in vivo, Mus musculus C57BL/6. To be noted: 24 h after inhibitor gavage. How it is done: Female C57BL/6 germ-free mice (n = 8 per inhibitor group), 10–12 weeks of age in an isolator, were colonized with 200 µL of mix containing the five bacterial species mentioned above at ~10^8 bacterial cells/mL. Mice were fed a 1% choline diet (Envigo) ad libitum. Two weeks after colonization, mice were administrated by gavage with 3 mg/kg of the inhibitor or vehicle between 6 and 8 a.m. once a day for three consecutive days. After a 10-day washout period, mice were orally administered 30 mg/kg of the inhibitor once a day (same time as above) for three consecutive days, and blood was collected 24 h after the last gavage.
A fecal sample was collected before the first gavage. At sacrifice, tissues collected were blood, cecal contents, a fecal pellet, proximal colon, distal small intestine, liver, and kidney. Mice were anesthetized with isoflurane and underwent cardiac puncture for a terminal blood draw, followed by cervical dislocation. Tissues were snap-frozen in liquid nitrogen. Blood was spun down at 8,000 × g for 8 min at room temperature; the resulting serum layer was removed and snap-frozen. All snap-frozen tissues were stored at −80°C until needed.
A standard curve of inhibitor 45 spiked in commercial mouse serum (Sigma) was prepared. To 50 µL of serum sample, 450 µL of a mixture 75% acetonitrile, 25% methanol, 1% formic acid was added to precipitate proteins. […]

Consider `Cc1ccc(-c2cc(C(=O)NCCCCCN3CCCCCC3)c(C)[nH]2)cc1C` [Compound 45], for which the “Concentration in wet cecal mass” value worked out at 463 pmol/µg. Moreover, the concentration at 24 h (female, C57BL/6, mouse, serum, oral, 30 mg/kg, limit of detection 1 µM) is below 1000 nM.

For the origin of these results see article PMC12977544, “Phenotypic high-throughput screening identifies modulators of gut microbial choline metabolism” (mBio, 2026).
